Assay results published in paper PMC3961306, “Comparison of the Cancer Gene Targeting and Biochemical Selectivities of All Targeted Kinase Inhibitors Approved for Clinical Use” (PLoS ONE, 2014).
Where two headings read alike, the source gives them in different places.

Key:
[1] = system: forty-four human cancer cell lines; experiment: Cell proliferation assay (ATPlite, 72 hours) in the 44 cell line Oncolines panel; format: cell-based; conditions: Homo sapiens
[2] = target: panel of more than 300 wild-type and mutant kinases (313 kinase panel) (Homo sapiens, UniProt O95819); experiment: Kinase profiling in a biochemical assay panel (mobility shift assays and ELISA), %-inhibition at 1 μM; selectivity entropy
[3] = target: panel of more than 300 wild-type and mutant kinases (313 kinase panel) (Homo sapiens, UniProt P00533, L858R); experiment: as above
[4] = target: panel of more than 300 wild-type and mutant kinases (313 kinase panel) (Homo sapiens, UniProt P09619); experiment: as above; conditions: kinase PDGFRβ; 1 μM
[5] = target: panel of more than 300 wild-type and mutant kinases (313 kinase panel) (Homo sapiens, UniProt P11362, V561M); experiment: as above; conditions: kinase FGFR1(V561M); compound at 1 μM
[6] = target: panel of more than 300 wild-type and mutant kinases (313 kinase panel) (Homo sapiens, UniProt P19525); experiment: as above
[7] = target: panel of more than 300 wild-type and mutant kinases (313 kinase panel) (Homo sapiens, UniProt Q00535); experiment: as above; conditions: kinase CDK5/p25; 1 μM compound
[8] = target: T1, panel of more than 300 wild-type and mutant kinases (313 kinase panel) (Homo sapiens, UniProt Q16832); experiment: as above; conditions: kinase DDR2; compound at 1 μM
T1 sequence (Q16832 22-855): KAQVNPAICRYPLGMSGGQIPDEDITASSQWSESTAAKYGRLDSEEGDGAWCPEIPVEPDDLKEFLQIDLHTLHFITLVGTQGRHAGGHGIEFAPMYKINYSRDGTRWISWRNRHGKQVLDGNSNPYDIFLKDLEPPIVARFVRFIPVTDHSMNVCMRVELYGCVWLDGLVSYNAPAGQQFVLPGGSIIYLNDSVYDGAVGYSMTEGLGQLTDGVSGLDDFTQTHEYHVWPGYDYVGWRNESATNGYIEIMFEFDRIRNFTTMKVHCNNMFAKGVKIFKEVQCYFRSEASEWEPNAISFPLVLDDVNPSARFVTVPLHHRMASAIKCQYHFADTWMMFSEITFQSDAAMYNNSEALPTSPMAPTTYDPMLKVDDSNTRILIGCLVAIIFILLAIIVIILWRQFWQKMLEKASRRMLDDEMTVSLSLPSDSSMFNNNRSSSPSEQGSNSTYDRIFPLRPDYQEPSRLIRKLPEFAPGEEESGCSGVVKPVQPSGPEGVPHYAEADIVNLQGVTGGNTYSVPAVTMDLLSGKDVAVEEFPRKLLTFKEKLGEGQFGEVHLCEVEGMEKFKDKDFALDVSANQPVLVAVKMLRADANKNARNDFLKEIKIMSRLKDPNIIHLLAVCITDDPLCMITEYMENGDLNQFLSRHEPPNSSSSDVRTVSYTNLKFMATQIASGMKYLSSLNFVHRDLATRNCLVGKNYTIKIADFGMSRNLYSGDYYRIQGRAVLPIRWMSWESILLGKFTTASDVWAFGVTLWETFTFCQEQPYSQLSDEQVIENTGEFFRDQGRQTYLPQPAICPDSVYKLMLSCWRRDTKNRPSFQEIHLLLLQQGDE

[9] = target: panel of more than 300 wild-type and mutant kinases (313 kinase panel) (Homo sapiens, UniProt Q9UM73, R1275Q); experiment: as above; conditions: kinase ALK(R1275Q); 1 μM compound
[10] = 4-4 cell, read-out: cell panel IC50, J82
[11] = 4-4 cell, read-out: cell panel IC50, PA-1
[12] = 4-4 cell, read-out: cell panel IC50, SJCRH30
[13] = 4-4 cell, read-out: cell panel IC50, SR
[14] = 769-P, read-out: cell panel IC50, 769-P
[15] = 786-0, read-out: cell panel IC50, 786-0
[16] = A 172, read-out: cell panel IC50, A-172
[17] = A204, read-out: cell panel IC50, A-204
[18] = A498, read-out: cell panel IC50, A-498
[19] = A549, read-out: cell panel IC50, A-549
[20] = A-375, read-out: cell panel IC50, A375
[21] = A-427, read-out: cell panel IC50, A-427
[22] = AN3-CA, read-out: cell panel IC50, AN3 CA
[23] = AU565, read-out: cell panel IC50, AU-565
[24] = BT-20, read-out: cell panel IC50, BT-20
[25] = BT-549, read-out: cell panel IC50, BT-549
[26] = BXPC-3, read-out: cell panel IC50, BxPC-3
[27] = C-33-A, read-out: cell panel IC50, C-33 A
[28] = CAL-27, read-out: cell panel IC50, CAL 27
[29] = CCRF-CEM, read-out: cell panel IC50, CCRF-CEM
[30] = DLD-1, read-out: cell panel IC50, DLD-1
[31] = FaDu, read-out: cell panel IC50, FaDu
[32] = HCT-15, read-out: cell panel IC50, HCT-15
[33] = HCT-116, read-out: cell panel IC50, HCT-116
[34] = Hs-578T, read-out: cell panel IC50, Hs 578T
[35] = Jurkat E6.1, read-out: cell panel IC50, Jurkat E6.1
[36] = K562, read-out: cell panel IC50, K-562
[37] = LS174T, read-out: cell panel IC50, LS 174T
[38] = LoVo, read-out: cell panel IC50, LoVo
[39] = MG-63, read-out: cell panel IC50, MG-63
[40] = MOLT-4, read-out: cell panel IC50, MOLT-4
[41] = MeWo, read-out: cell panel IC50, MeWo
[42] = NCI-H82, read-out: cell panel IC50, NCI-H82
[43] = NCI-H460, read-out: cell panel IC50, NCI-H460
[44] = OVCAR-3, read-out: cell panel IC50, OVCAR-3
[45] = RPMI-7951, read-out: cell panel IC50, RPMI-7951
[46] = SHP77, read-out: cell panel IC50, SHP-77
[47] = SK-N-AS, read-out: cell panel IC50, SK-N-AS
[48] = SW48, read-out: cell panel IC50, SW48
[49] = SW480, read-out: cell panel IC50, SW480
[50] = SW-620, read-out: cell panel IC50, SW620
[51] = U2OS, read-out: cell panel IC50, U-2 OS
[52] = U-87 MG, 72 h, read-out: IC50 in cell proliferation assay (table S5 cellpanel data)
[53] = ACHN, read-out: cell panel IC50, ACHN
[54] = kinase EGFR(L858R), compound at 1 μM

Cc1ccc(C(=O)Nc2ccc(CN3CCN(C)CC3)c(C(F)(F)F)c2)cc1C#Cc1cnc2cccnn12 [ponatinib]
IC50 [1, 10]: 1.53 µM | IC50 [1, 11]: 0.814 µM | IC50 [1, 12]: 1.11 µM | IC50 [1, 13]: 0.836 µM | IC50 [1, 14]: 1.8 µM | IC50 [1, 15]: 1.87 µM | IC50 [1, 16]: 0.626 µM | IC50 [1, 17]: 0.092 µM | IC50 [1, 18]: 1.32 µM | IC50 [1, 19]: 1.15 µM | IC50 [1, 20]: 1.14 µM | IC50 [1, 21]: 0.352 µM | IC50 [1, 22]: 0.124 µM | IC50 [1, 23]: 1.42 µM | IC50 [1, 24]: 5.12 µM | IC50 [1, 25]: 1.85 µM | IC50 [1, 26]: 0.817 µM | IC50 [1, 27]: 1 µM | IC50 [1, 28]: 1.73 µM | IC50 [1, 29]: 2.25 µM | IC50 [1, 30]: 1.13 µM | IC50 [1, 31]: 1.11 µM | IC50 [1, 32]: 0.913 µM | IC50 [1, 33]: 1.21 µM | IC50 [1, 34]: 1.18 µM | IC50 [1, 35]: 0.403 µM | IC50 [1, 36]: 0.0065 µM | IC50 [1, 37]: 2.05 µM | IC50 [1, 38]: 0.38 µM | IC50 [1, 39]: 2.48 µM | IC50 [1, 40]: 0.977 µM | IC50 [1, 41]: 2.22 µM | IC50 [1, 42]: 1.1 µM | IC50 [1, 43]: 1.43 µM | IC50 [1, 44]: 2.95 µM | IC50 [1, 45]: 1.15 µM | IC50 [1, 46]: 6.49 µM | IC50 [1, 47]: 1.08 µM | IC50 [1, 48]: 1.55 µM | IC50 [1, 49]: 2.17 µM | IC50 [1, 50]: 0.799 µM | IC50 [1, 51]: 1.11 µM | IC50 [1, 52]: 3.1 µM | %-inhibition of HGK ([2]; kinase HGK, compound at 1 μM): 92% | %-inhibition of EGFR(L858R) ([3]; 1 µM): 95% | %-inhibition of PDGFRβ [4]: 102% | %-inhibition of FGFR1(V561M) [5]: 98% | %-inhibition of PKR ([6]; kinase PKR, 1 μM): 19% | %-inhibition, CDK5/p25 [7]: -20% | %-inhibition of DDR2 [8]: 101% | %-inhibition, ALK(R1275Q) [9]: 45%

Cc1cn(-c2cc(NC(=O)c3ccc(C)c(Nc4nccc(-c5cccnc5)n4)c3)cc(C(F)(F)F)c2)cn1 [nilotinib]
IC50 [1, 10]: 6.33 µM | IC50 [1, 11]: 13.8 µM | IC50 [1, 12]: > 31.6 µM | IC50 [1, 13]: 4.31 µM | IC50 [1, 14]: > 31.6 µM | IC50 [1, 15]: 1.11 µM | IC50 [1, 16]: 9.78 µM | IC50 [1, 17]: 0.584 µM | IC50 [1, 18]: 5.04 µM | IC50 [1, 19]: 7.29 µM | IC50 [1, 20]: 9.58 µM | IC50 [1, 21]: 6.73 µM | IC50 [1, 53]: 12.3 µM | IC50 [1, 22]: 26.1 µM | IC50 [1, 23]: 4.63 µM | IC50 [1, 24]: > 31.6 µM | IC50 [1, 25]: 3.33 µM | IC50 [1, 26]: 10.1 µM | IC50 [1, 27]: > 31.6 µM | IC50 [1, 28]: 9.84 µM | IC50 [1, 29]: 6.74 µM | IC50 [1, 30]: 7.3 µM | IC50 [1, 31]: > 31.6 µM | IC50 [1, 32]: 6.17 µM | IC50 [1, 33]: 5.75 µM | IC50 [1, 34]: 7.43 µM | IC50 [1, 35]: 11.8 µM | IC50 [1, 36]: 0.026 µM | IC50 [1, 37]: 6.11 µM | IC50 [1, 38]: 7.46 µM | IC50 [1, 39]: 8.78 µM | IC50 [1, 40]: 4.36 µM | IC50 [1, 41]: > 31.6 µM | IC50 [1, 42]: 31.2 µM | IC50 [1, 43]: 6.49 µM | IC50 [1, 44]: > 31.6 µM | IC50 [1, 45]: 7.78 µM | IC50 [1, 46]: > 31.6 µM | IC50 [1, 47]: 24 µM | IC50 [1, 48]: > 31.6 µM | IC50 [1, 49]: 18 µM | IC50 [1, 50]: 5.3 µM | IC50 [1, 51]: 5.38 µM | IC50 [1, 52]: > 31.6 µM | %-inhibition of HGK ([2]; 1 µM): 4% | %-inhibition of EGFR(L858R) [3, 54]: 30% | %-inhibition of PKR ([6]; 1 µM): 0% | %-inhibition, CDK5/p25 [7]: 0.83% | %-inhibition of DDR2 [8]: 102%

Cc1ccc(Nc2nccc(N(C)c3ccc4c(C)n(C)nc4c3)n2)cc1S(N)(=O)=O [pazopanib]
IC50 [1, 10]: 28.9 µM | IC50 [1, 11]: 10.6 µM | IC50 [1, 12]: 9.59 µM | IC50 [1, 13]: 6.2 µM | IC50 [1, 14]: 5.99 µM | IC50 [1, 15]: 8.1 µM | IC50 [1, 16]: 13.1 µM | IC50 [1, 17]: 0.229 µM | IC50 [1, 18]: 11.1 µM | IC50 [1, 19]: 14.8 µM | IC50 [1, 20]: 16.7 µM | IC50 [1, 21]: 7.3 µM | IC50 [1, 53]: 9.33 µM | IC50 [1, 22]: 0.289 µM | IC50 [1, 23]: 6.57 µM | IC50 [1, 24]: 19.2 µM | IC50 [1, 25]: 7.91 µM | IC50 [1, 26]: 6.71 µM | IC50 [1, 27]: 7.9 µM | IC50 [1, 28]: 18.6 µM | IC50 [1, 29]: 10.9 µM | IC50 [1, 30]: 10.5 µM | IC50 [1, 31]: 11.5 µM | IC50 [1, 32]: 11.8 µM | IC50 [1, 33]: 17.4 µM | IC50 [1, 34]: 11.5 µM | IC50 [1, 35]: 4.58 µM | IC50 [1, 36]: 12.5 µM | IC50 [1, 37]: 9.94 µM | IC50 [1, 38]: 7.39 µM | IC50 [1, 39]: 13.5 µM | IC50 [1, 40]: 6.89 µM | IC50 [1, 41]: 25.4 µM | IC50 [1, 42]: 8.41 µM | IC50 [1, 43]: 1.63 µM | IC50 [1, 44]: > 31.6 µM | IC50 [1, 45]: 15.1 µM | IC50 [1, 46]: 12.5 µM | IC50 [1, 47]: 19.4 µM | IC50 [1, 48]: 13.1 µM | IC50 [1, 49]: 10.2 µM | IC50 [1, 50]: 9.11 µM | IC50 [1, 51]: 14 µM | IC50 [1, 52]: 24 µM | %-inhibition of HGK ([2]; kinase HGK, compound at 1 μM): 50% | %-inhibition of EGFR(L858R) [3, 54]: 36% | %-inhibition of PDGFRβ [4]: 96% | %-inhibition, CDK5/p25 [7]: 9% | %-inhibition of DDR2 [8]: 96%
